Target: T1, Acetyl-CoA acetyltransferase, mitochondrial (Homo sapiens, UniProt P24752)
T1 sequence (P24752 whole entry): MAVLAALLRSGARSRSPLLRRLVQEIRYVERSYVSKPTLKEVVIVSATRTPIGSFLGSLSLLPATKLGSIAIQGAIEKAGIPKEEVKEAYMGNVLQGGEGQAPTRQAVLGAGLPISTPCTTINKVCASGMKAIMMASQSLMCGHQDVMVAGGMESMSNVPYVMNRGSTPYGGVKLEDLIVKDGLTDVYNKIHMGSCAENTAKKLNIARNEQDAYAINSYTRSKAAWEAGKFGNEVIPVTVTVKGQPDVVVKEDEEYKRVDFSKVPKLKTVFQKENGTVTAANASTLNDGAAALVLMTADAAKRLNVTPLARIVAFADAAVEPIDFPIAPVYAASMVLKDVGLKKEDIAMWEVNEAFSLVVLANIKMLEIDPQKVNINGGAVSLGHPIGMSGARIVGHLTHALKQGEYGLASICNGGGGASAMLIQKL
Experiment: Experimental Method Screening Method of ACAT1 Small Molecule Inhibitors
Method: ACAT1 can catalyze two molecules of acetyl coenzyme A to reversibly form acetoacetyl coenzyme A. Its activity was measured through the reaction between ACAT1-catalyzed substrate acetoacetyl-coenzyme A and coenzyme A, from which the product acetyl-coenzyme A is produced. Since acetoacetyl-coenzyme A is specifically absorbed in a specific spectrum, the impact on the enzyme activity of ACAT1 can be reflected through the detection of an increase or decrease of absorption in a specific spectrum.ACAT1 recombinant proteins were expressed and purified by Escherichia coli, and the concentration of ACAT1 recombinant proteins obtained was 1 mg/mL. The buffers adopted for ACAT1 small molecule inhibitor screening were 50 mM Tris-HCl (pH 8.1), 20 mM MgCl2, and 40 mM KCl. In 200 μL of enzyme catalytic system, 1 μL of ACAT1 recombinant proteins, the substrate […] whose final concentration was changed from 25 μM to 100 μM through a CPM probe, and small molecule inhibitors at different concentrations were added, respectively.

IC50	SMILES
172 µM	COCOc1ccc(/C=C/C(=O)Nc2ccc(OCCc3ccc(OC)c(OC)c3)cc2)cc1OCOC [US20250248955, Compound M16]
> 100 µM	COc1ccc([C@@H](O)[C@@H](C)Oc2ccc(OC(=O)/C=C/c3ccc(O)c(O)c3)cc2OC)cc1OC [US20250248955, Compound M3]
114 µM	O=C(/C=C/c1ccc(O)c(O)c1)Nc1ccc(OCCc2ccc(O)cc2)cc1 [US20250248955, Compound M8]
> 100 µM	COc1ccc([C@H](O)[C@@H](C)Oc2ccc(OC(=O)/C=C/c3ccc(O)c(O)c3)cc2OC)cc1OC [US20250248955, Compound M2]

Continued, compound first:

SMILES	IC50
COCOc1ccc(/C=C/C(=O)Nc2ccc(OCCc3ccc(F)cc3)cc2)cc1OCOC [US20250248955, Compound M13]	152 µM
O=C(/C=C/c1ccc(O)c(O)c1)Nc1ccc(OCCc2ccc(F)cc2)cc1 [US20250248955, Compound M6]	134 µM
COCOc1ccc(/C=C/C(=O)Nc2ccc(OCCc3ccc(C)cc3)cc2)cc1OCOC [US20250248955, Compound M14]	111 µM
COCOc1ccc(/C=C/C(=O)Nc2ccc(OCCc3ccccc3)cc2)cc1OCOC [US20250248955, Compound M11]	136 µM
O=C(/C=C/c1ccc(O)c(O)c1)Nc1ccc(OCCc2ccccc2)cc1 [US20250248955, Compound M4]	112 µM
COCOc1ccc(/C=C/C(=O)Nc2ccc(OCCc3ccc(O)cc3)cc2)cc1OCOC [US20250248955, Compound M15]	312 µM

Source: BindingDB's records for patent US20250248955 (Longivitron (Suzhou) Biotechnology Co., 2025)
